This note sets out measurements from patent US8748417B2, “Amino-pyrrolidine-azetidine diamides as monoacylglycerol lipase inhibitors” (Janssen Pharmaceutica, NV, priority 2010, dated 2014).

The structures appear in SMILES notation.

For orientation: IC50 means the concentration that gives 50% inhibition.

The target in the first test is T1, purified wild type MGL (wt-MGLL 6H-11-313) (Homo sapiens, UniProt Q99685).
T1 construct: purified wild type MGL (wt-MGLL 6H-11-313)
T1 sequence (Q99685 1-303): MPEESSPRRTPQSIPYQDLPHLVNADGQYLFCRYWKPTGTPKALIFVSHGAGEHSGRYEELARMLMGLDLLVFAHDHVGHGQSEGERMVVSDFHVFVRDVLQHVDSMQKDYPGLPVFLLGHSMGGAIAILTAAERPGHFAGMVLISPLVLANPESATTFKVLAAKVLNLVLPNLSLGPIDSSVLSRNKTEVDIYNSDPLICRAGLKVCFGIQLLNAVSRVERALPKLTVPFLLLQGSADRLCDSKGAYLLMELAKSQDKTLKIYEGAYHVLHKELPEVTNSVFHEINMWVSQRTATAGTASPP
The test can be described thus: MGL enzyme activity assay (4MU-B cleavage), wild type MGL. Particulars: wild type MGL 5 nM, 4MU-B 10 μM, 37° C.; read-out: MGL wild type inh IC50. In kind it is biochemical. The protocol:
All rate-based assays were performed in black 384-well polypropylene PCR microplates (Abgene) in a total volume of 30 μL. Substrate 4-methylumbelliferyl butyrate (4MU-B; Sigma) and either purified mutant MGL (mut-MGLL 11-313 L179S L186S) or purified wild type MGL (wt-MGLL 6H-11-313) were diluted separately into 20 mM PIPES buffer (pH=7.0), containing 150 mM NaCl and 0.001% Tween 20. Compounds of Formula (I) were pre-dispensed (50 nL) into the assay plate using a Cartesian Hummingbird prior to adding 4MU-B (25 μL of 1.2× solution to a final concentration of 10 μM) followed by enzyme (5 μL of a 6× solution to a final concentration of 5 nM) to initiate the reaction. Final compound concentrations ranged from 17 to 0.0003 μM. The fluorescence change due to 4MU-B cleavage was monitored with excitation and emission wavelengths of 335 and 440 nm, respectively, and a bandwidth of 10 nm (Safire^2, Tecan) at 37° C. for 5 min.
The IC50 values for the following compounds were determined using Microsoft Office Excel from a fit of the equation to the concentration-response plot of the fractional activity as a function of inhibitor concentration.
As for `O=C(c1ccc(C(O)c2ccc(C(F)(F)F)cc2)cc1)N1CC(N[C@H]2CCN(C(=O)c3ccccc3)C2)C1` (stereo partly drawn) [Cpd 67], the half-maximal inhibitory concentration (IC50) worked out at 9.7 nM.

On to `CC(C)=Cc1c(C(=O)N2CC(N[C@H]3CCN(C(=O)c4ccccc4)C3)C2)sc2cc(C(F)(F)F)ccc12` [Cpd 76, (3S)-N-(1-{[3-(2-Methylprop-1-en-1-yl)-6-(trifluoromethyl)-1-benzothiophen-2-yl]carbonyl}azetidin-3-yl)-1-(phenylcarbonyl)pyrrolidin-3-amine], for which the IC50 came to 61.8 nM.

With `O=C(c1ccc(Cc2ccc(C(F)(F)F)cc2)cc1)N1CC(N[C@H]2CCN(C(=O)c3ccccc3)C2)C1` [Cpd 77, (S)-(3-((1-Benzoylpyrrolidin-3-yl)amino)azetidin-1-yl)(4-(4-(trifluoromethyl)benzyl)phenyl)methanone], the IC50 was less than 5 nM.

As to `Cc1c(C(=O)N2CC(N[C@H]3CCN(C(=O)c4ccccc4)C3)C2)sc2cc(C(F)(F)F)ccc12` [Cpd 80, (3S)-N-(1-{[3-Methyl-6-(trifluoromethyl)-1-benzothiophen-2-yl]carbonyl}azetidin-3-yl)-1-(phenylcarbonyl)pyrrolidin-3-amine], the IC50 came out at 22.6 nM.

With `Cc1c(C(=O)N2CC(N[C@H]3CCN(C(=O)c4nccs4)C3)C2)sc2ccc(Cl)cc12` [Cpd 84, (3S)-N-{1-[(5-Chloro-3-methyl-1-benzothiophen-2-yl)carbonyl]azetidin-3-yl}-1-(1,3-thiazol-2-ylcarbonyl)pyrrolidin-3-amine], the concentration for half-maximal inhibition (IC50) was less than 5 nM.

With `Cc1nc(-c2ccc(Cl)cc2)sc1C(=O)N1CC(N[C@H]2CCN(C(=O)c3nccs3)C2)C1` [Cpd 137, (3S)-N-(1-{[2-(4-Chlorophenyl)-4-methyl-1,3-thiazol-5-yl]carbonyl}azetidin-3-yl)-1-(1,3-thiazol-2-ylcarbonyl)pyrrolidin-3-amine], the IC50 was 446 nM.

As for `O=C(c1cscn1)N1CC[C@H](NC2CN(C(=O)c3cc4ccc(C(F)(F)F)cc4s3)C2)C1` [Cpd 139, (3S)-1-(1,3-Thiazol-4-ylcarbonyl)-N-(1-{[6-(trifluoromethyl)-1-benzothiophen-2-yl]carbonyl}azetidin-3-yl)pyrrolidin-3-amine], the IC50 stood at 311 nM.

`Cc1cc(-c2cccc(C(F)(F)F)c2)ccc1C(=O)N1CC(N[C@H]2CCN(C(=O)c3ccccc3)C2)C1` [Cpd 153, (3S)-N-(1-{[3-Methyl-3′-(trifluoromethyl)biphenyl-4-yl]carbonyl}azetidin-3-yl)-1-(phenylcarbonyl)pyrrolidin-3-amine]: the IC50 was determined as 176 nM.

With `O=C(c1ccc2c(ccn2-c2ncccn2)c1)N1CC(N[C@H]2CCN(C(=O)c3ccccc3)C2)C1` [Cpd 155, (3S)-1-(Phenylcarbonyl)-N-{1-[(1-pyrimidin-2-yl-1H-indol-5-yl)carbonyl]azetidin-3-yl}pyrrolidin-3-amine], the IC50 is 1280 nM.

As to `O=C(c1ccc2c(cnn2-c2ccccc2)c1)N1CC(N[C@H]2CCN(C(=O)c3ccccc3)C2)C1` [Cpd 156, (3S)-1-(Phenylcarbonyl)-N-{1-[(1-phenyl-1H-indazol-5-yl)carbonyl]azetidin-3-yl}pyrrolidin-3-amine], the IC50 is 482 nM.

Regarding `O=C(c1ccc2nc(-c3ccccc3)sc2c1)N1CC(N[C@H]2CCN(C(=O)c3ccccc3)C2)C1` [Cpd 157, (3S)-N-{1-[(2-Phenyl-1,3-benzothiazol-6-yl)carbonyl]azetidin-3-yl}-1-(phenylcarbonyl)pyrrolidin-3-amine], the IC50 was 211 nM.

For `Cn1cc(-c2ccccc2)c2ccc(C(=O)N3CC(N[C@H]4CCN(C(=O)c5cscn5)C4)C3)cc21` [Cpd 170, (3S)-N-{1-[(1-Methyl-3-phenyl-1H-indol-6-yl)carbonyl]azetidin-3-yl}-1-(1,3-thiazol-4-ylcarbonyl)pyrrolidin-3-amine], the IC50 worked out at 350 nM.

With `O=C(c1ccccc1)N1CC[C@H](NC2CN(C(=O)c3sc4cc(Cl)ccc4c3C(F)(F)F)C2)C1` [Cpd 182, (3S)-N-(1-{[6-Chloro-3-(trifluoromethyl)-1-benzothiophen-2-yl]carbonyl}azetidin-3-yl)-1-(phenylcarbonyl)pyrrolidin-3-amine], the IC50 was determined as 217 nM.

In the case of `Cc1ccc2sc(C(=O)N3CC(N[C@H]4CCN(C(=O)c5cscn5)C4)C3)c(C(F)(F)F)c2c1` [Cpd 184, (3S)-N-(1-{[5-Methyl-3-(trifluoromethyl)-1-benzothiophen-2-yl]carbonyl}azetidin-3-yl)-1-(1,3-thiazol-4-ylcarbonyl)pyrrolidin-3-amine], the half-inhibitory concentration (IC50) came out at 205 nM.

Take `Cc1ccc2c(C(F)(F)F)c(C(=O)N3CC(N[C@H]4CCN(C(=O)c5cscn5)C4)C3)sc2c1` [Cpd 185, (3S)-N-(1-{[6-Methyl-3-(trifluoromethyl)-1-benzothiophen-2-yl]carbonyl}azetidin-3-yl)-1-(1,3-thiazol-4-ylcarbonyl)pyrrolidin-3-amine]: the IC50 was 488 nM.

With `O=C(c1ccc2c(-c3ccc(F)cc3)c[nH]c2c1)N1CC(N[C@H]2CCN(C(=O)c3cscn3)C2)C1` [Cpd 190, (3S)-N-(1-{[3-(4-Fluorophenyl)-1H-indol-6-yl]carbonyl}azetidin-3-yl)-1-(1,3-thiazol-4-ylcarbonyl)pyrrolidin-3-amine], the IC50 came out at 114 nM.

With `O=C(c1ccc2c(-c3ccc(F)cc3)c[nH]c2c1)N1CC(N[C@H]2CCN(C(=O)c3ccccc3)C2)C1` [Cpd 191, (3S)-N-(1-{[3-(4-Fluorophenyl)-1H-indol-6-yl]carbonyl}azetidin-3-yl)-1-(phenylcarbonyl)pyrrolidin-3-amine], the IC50 is 297 nM.

`Cn1nc(-c2ccccc2)c2cc(C(=O)N3CC(N[C@H]4CCN(C(=O)c5cscn5)C4)C3)ccc21` [Cpd 196, (3S)-N-{1-[(1-Methyl-3-phenyl-1H-indazol-5-yl)carbonyl]azetidin-3-yl}-1-(1,3-thiazol-4-ylcarbonyl)pyrrolidin-3-amine]: the IC50 turned out to be 298 nM.

With `Cn1nc(-c2ccccc2)c2cc(C(=O)N3CC(N[C@H]4CCN(C(=O)c5ccccc5)C4)C3)ccc21` [Cpd 197, (3S)-N-{1-[(1-Methyl-3-phenyl-1H-indazol-5-yl)carbonyl]azetidin-3-yl}-1-(phenylcarbonyl)pyrrolidin-3-amine], the IC50 stood at 199 nM.

`Cn1nc(-c2cccc(F)c2)c2cc(C(=O)N3CC(N[C@H]4CCN(C(=O)c5nccs5)C4)C3)ccc21` [Cpd 199, (3S)-N-(1-{[3-(3-Fluorophenyl)-1-methyl-1H-indazol-5-yl]carbonyl}azetidin-3-yl)-1-(1,3-thiazol-2-ylcarbonyl)pyrrolidin-3-amine]: the IC50 was 107 nM.

As to `Cn1nc(-c2cccc(F)c2)c2cc(C(=O)N3CC(N[C@H]4CCN(C(=O)c5cscn5)C4)C3)ccc21` [Cpd 200, (3S)-N-(1-{[3-(3-Fluorophenyl)-1-methyl-1H-indazol-5-yl]carbonyl}azetidin-3-yl)-1-(1,3-thiazol-4-ylcarbonyl)pyrrolidin-3-amine], the IC50 was determined as 843 nM.

Turning to `Cn1nc(-c2cccc(F)c2)c2cc(C(=O)N3CC(N[C@H]4CCN(C(=O)c5ccccc5)C4)C3)ccc21` [Cpd 201, (3S)-N-(1-{[3-(3-Fluorophenyl)-1-methyl-1H-indazol-5-yl]carbonyl}azetidin-3-yl)-1-(phenylcarbonyl)pyrrolidin-3-amine], the IC50 came to 459 nM.

On to `Cn1nc(-c2ccc(F)cc2)c2cc(C(=O)N3CC(N[C@H]4CCN(C(=O)c5nccs5)C4)C3)ccc21` [Cpd 209, (3S)-N-(1-{[3-(4-Fluorophenyl)-1-methyl-1H-indazol-5-yl]carbonyl}azetidin-3-yl)-1-(1,3-thiazol-2-ylcarbonyl)pyrrolidin-3-amine], for which the IC50 was 279 nM.

Take `Cn1nc(-c2ccc(F)cc2)c2cc(C(=O)N3CC(N[C@H]4CCN(C(=O)c5cscn5)C4)C3)ccc21` [Cpd 210, (3S)-N-(1-{[3-(4-Fluorophenyl)-1-methyl-1H-indazol-5-yl]carbonyl}azetidin-3-yl)-1-(1,3-thiazol-4-ylcarbonyl)pyrrolidin-3-amine]: the IC50 came to 2040 nM.

Turning to `Cn1nc(-c2ccc(F)cc2)c2cc(C(=O)N3CC(N[C@H]4CCN(C(=O)c5ccccc5)C4)C3)ccc21` [Cpd 211, (3S)-N-(1-{[3-(4-Fluorophenyl)-1-methyl-1H-indazol-5-yl]carbonyl}azetidin-3-yl)-1-(phenylcarbonyl)pyrrolidin-3-amine], the IC50 came out at 943 nM.

Another test concerns MGL (rat brain homogenate). The experiment in a line: 2-AG accumulation assay in rat brain homogenate. In kind it is biochemical. The settings on record: compound 1 μM, percent of vehicle 2-AG accumulation. On the procedure:
After a 15-min incubation time at 37° C., CaCl2 (final concentration=10 mM) was added and then incubated for 15 min at 37° C. in a total volume of 5 mL. The reactions were stopped with 6 mL organic solvent extraction solution of 2:1 chloroform/methanol. Accumulated 2-AG in the organic phase was measured by a HPLC/MS method, according to the following equation: percent vehicle=(2-AG accumulation in the presence of compound/2-AG accumulation in vehicle)×100.
As for `O=C(c1ccc(C(O)c2ccc(C(F)(F)F)cc2)cc1)N1CC(N[C@H]2CCN(C(=O)c3ccccc3)C2)C1` (stereo partly drawn) [Cpd 67], the “Rat Brain 2AG % VehCntrl (%) @1 μM” value is given as 928%.

On to `CC(C)=Cc1c(C(=O)N2CC(N[C@H]3CCN(C(=O)c4ccccc4)C3)C2)sc2cc(C(F)(F)F)ccc12` [Cpd 76, (3S)-N-(1-{[3-(2-Methylprop-1-en-1-yl)-6-(trifluoromethyl)-1-benzothiophen-2-yl]carbonyl}azetidin-3-yl)-1-(phenylcarbonyl)pyrrolidin-3-amine], for which the “Rat Brain 2AG % VehCntrl (%) @1 μM” value amounted to 522%.

Consider `O=C(c1ccc(Cc2ccc(C(F)(F)F)cc2)cc1)N1CC(N[C@H]2CCN(C(=O)c3ccccc3)C2)C1` [Cpd 77, (S)-(3-((1-Benzoylpyrrolidin-3-yl)amino)azetidin-1-yl)(4-(4-(trifluoromethyl)benzyl)phenyl)methanone], for which the “Rat Brain 2AG % VehCntrl (%) @1 μM” value stood at 506%.

For `Cc1c(C(=O)N2CC(N[C@H]3CCN(C(=O)c4ccccc4)C3)C2)sc2cc(C(F)(F)F)ccc12` [Cpd 80, (3S)-N-(1-{[3-Methyl-6-(trifluoromethyl)-1-benzothiophen-2-yl]carbonyl}azetidin-3-yl)-1-(phenylcarbonyl)pyrrolidin-3-amine], the “Rat Brain 2AG % VehCntrl (%) @1 μM” value amounted to 174%.

Take `Cc1c(C(=O)N2CC(N[C@H]3CCN(C(=O)c4nccs4)C3)C2)sc2ccc(Cl)cc12` [Cpd 84, (3S)-N-{1-[(5-Chloro-3-methyl-1-benzothiophen-2-yl)carbonyl]azetidin-3-yl}-1-(1,3-thiazol-2-ylcarbonyl)pyrrolidin-3-amine]: the “Rat Brain 2AG % VehCntrl (%) @1 μM” value is 433%.
